In patent publication US20250032676A1, “3D HYDROGEL COMPOSITE HAVING CANCER CELL APOPTOTIC EFFECT AND PREPARATION METHOD THEREOF” (DONGGUK UNIVERSITY INDUSTRY-ACADEMIC COOPERATION FOUNDATION, priority 2022, published 2025):

Tested on: MDA-MB-231 breast cancer cells
Assay: Cell killing by 6-MP released from hydrogel versus 6-MP at same concentration, WST-1 assay
Format: cell-based
Settings: 24 h treatment, same 6-MP concentration; FIG. 12
Method: The apoptotic effect resulting from the release of anticancer agents was confirmed by comparing the effects of anticancer agents released due to chemical bond cleavage during photoirradiation with that of anticancer agents at the same concentration.
The three-dimensional hydrogels prepared according to Examples 1 to 3 to have a diameter of 8 mm and a height of 2 mm were stored together with 1 mL of PBS at 37° C. and 100 RPM. MDA-MB-231 breast cancer cells were inoculated at a density of 4×10^4 cells per well on a 48-well plate prepared with DMEM supplemented with 10% FBS and 1% penicillin/streptomycin and cultured at 37° C. for one day. After removal of the existing medium, cancer cells were treated with 50 μL of fresh medium and 150 μL of PBS containing released 6-MP, and incubated at 37° C. for 24 h. For the WST-1 assay, the cells were washed with PBS, treated with EZ-Cytox solution in each experimental group, incubated at 37° C. for 2 hours, and then measured by absorbance at 450 nm to confirm the cell apoptosis effect.

Structure (SMILES) | breast cancer cells died / killed [%]
S=c1nc[nH]c2nc[nH]c12 | 70
Sc1ncnc2nc[nH]c12 [6-MP, 6-mercaptopurine] | 21
